# Assay results: US20260123631A1, “NATURAL PORPHIN SALT AND USE THEREOF AS PLANT GROWTH REGULATOR AND PLANT IMMUNITY INDUCER” (NANJING BOSTEC BIOLOGICAL ENGINEERING CO., LTD, priority 2022, published 2026)
# How the values were obtained:
# [1] = Dilution and pH determination for sample solutions; format: physicochemical
# Description: Method: 0.2500 g of a sample was accurately weighed and added to a 25 mL volumetric flask, dissolved with purified water, and diluted to a specified scale to prepare a 1.00% (10,000.0 ppm) initial solution. The initial solution was diluted with purified water in different ratios to prepare a series of solutions with a concentration of 1,000.0 ppm to 0.1 ppm. A pH value of each sample was determined three times.
# [2] = Stability of sample solutions in the dark/under light; format: physicochemical; details: under light 30,000 lux, salts in water, acidic reference in 30% to 50% ethanol
# Summary of the method: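 Salt in water, or acidic reference in 30–50% aqueous ethanol, at about 10 ppm; UV absorbance scanned 200–800 nm at 0, 1, 2, 3 h, stored at 25° C dark or under 30,000 lux light. Relative content = max-peak absorbance at each time divided by 0 h value (100%).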
# chlorophyllase = experiment: In vitro chlorophyllase-inhibiting activity test; format: biochemical, mung bean; details: substrate chlorophyll 120 ppm, sample 0.3 ppm to 30.0 ppm
# Description: A chlorophyllase inhibition rate of a salt sample solution at each concentration was determined, and an IC50 value for a chlorophyllase inhibition activity of a salt sample was calculated.
# mung bean seedlings = experiment: Inducing adventitious roots from hypocotyls of mung bean; format: in vivo; details: day 7
# Summary of the method: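 Cuttings taken 3 cm below the first true leaf node from 7–8 cm seedlings, roots removed, held in 0.010 ppm or 0.1 ppm salt samples in 400-fold diluted hydroponic nutrient solution in darkened bottles. Kept 7 d at 20–25° C with solution changed every 2 d; adventitious root number and total length per seedling averaged on day 7.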
# tomato = experiment: Spraying on tomato to increase a yield; format: in vivo, tomato (Jinfan 1615); details: 0.05 ppm sprayed twice; for Yield increase rate: versus control
# Description: During cultivation, flat planting, plastic mulching, seedling transplanting, and pressurized drip irrigation were adopted. On April 29, seedlings were transplanted at 2,600 seedlings/mu. An area of 20 mu was adopted for each of control and treatment groups. Each treatment region was sprayed with a sodium iron chlorophyllin solution at a concentration of 0.05 ppm twice in an early flowering stage (May 22, 2021) and a fruit setting stage (Jun. 5, 2021), respectively.
# The harvesting was conducted on August 3. During the harvesting, 5 plants were continuously and randomly selected from each treatment for sampling statistics.
# [3] = system: verticillium wilt in cotton; experiment: Spraying on cotton to control verticillium wilt; format: in vivo, cotton (Xinluzhong 66)
# Text: Method: A total of five treatments were set, including: the sample in three concentrations; the positive control; and the blank control. An agent was sprayed once at each of a seedling stage (May 28) and a bud stage (June 28) of cotton, where a concentration was adjusted each time. Concentration changes of the sodium iron chlorophyllin and controls (first to fifth treatments) were as follows: [table] […] A three-point survey method was adopted for each treatment, and 100 plants were selected at each point. A control effect was surveyed.
# cotton = experiment: Cotton yield in the verticillium wilt experiment; format: in vivo, cotton (Xinluzhong 66)
# Description: Method: A total of five treatments were set, including: the sample in three concentrations; the positive control; and the blank control. An agent was sprayed once at each of a seedling stage (May 28) and a bud stage (June 28) of cotton, where a concentration was adjusted each time. Concentration changes of the sodium iron chlorophyllin and controls (first to fifth treatments) were as follows:
# The harvesting was conducted on Nov. 15, 2020. […] The growth of cotton was first counted. Then, the harvesting was conducted, and a yield increase rate was calculated.
# rice = experiment: Spraying on flooded rice; format: in vivo, rice (Nanjing 9108); details: 10.0 ppm solution, 1.2 L/mu (12.0 mg/mu), aerial application after 10 d waterlogging; moisture content 16.5%
# Description: Waterlogging: On Jul. 10, 2021, an area of 20 mu was flooded. The floodwater receded on July 20. During the 10 d of waterlogging, the plant was totally submerged for nearly 4 d and was mostly submerged for nearly 6 d. After the floodwater receded, rice plants were weak and had yellow and drooping leaves.
# Method: A 10.0 ppm sodium iron chlorophyllin solution was sprayed on 10 mu of land through aerial application at an average amount of 1.2 L/mu (sodium iron chlorophyllin amount: 12.0 mg/mu). 10 mu of land was taken as a blank control (0 mg/mu).
# [4] = First treatment (0.167 ppm seedling stage, 0.500 ppm bud stage), first survey (June 28)
# [5] = First treatment (0.167 ppm seedling stage, 0.500 ppm bud stage), second survey (August 10)
# [6] = Second treatment (0.500 ppm seedling stage, 0.188 ppm bud stage), first survey (June 28)
# [7] = Second treatment (0.500 ppm seedling stage, 0.188 ppm bud stage), second survey (August 10)
# [8] = Third treatment (1.000 ppm seedling stage, 0.833 ppm bud stage), first survey (June 28)
# [9] = Third treatment (1.000 ppm seedling stage, 0.833 ppm bud stage), second survey (August 10)
# [10] = First treatment (0.167 / 0.500 ppm)
# [11] = Second treatment (0.500 / 0.188 ppm)
# [12] = Third treatment (1.000 / 0.833 ppm)
substance,measurement,setting,value
sodium iron chlorophyllin,pH,[1]; 0.1 ppm in purified water,(6.68)
same,pH,[1]; 1.0 ppm in purified water,(6.95)
same,pH,[1]; 10.0 ppm in purified water,(7.14)
same,pH,[1]; 20.0 ppm in purified water,(7.52)
same,pH,[1]; 30.0 ppm in purified water,(7.63)
same,pH,[1]; 100.0 ppm in purified water,(8.18)
same,pH,[1]; 1000.0 ppm in purified water,(10.05)
same,pH,[1]; 10000.0 ppm in purified water,(10.87)
same,Relative content,[2]; 1 h,61.61%
same,Relative content,[2]; 2 h,54.63%
same,Relative content,[2]; 3 h,53.29%
same,IC50 for chlorophyllase inhibition activity,chlorophyllase,5.41 ppm
same,Adventitious root number,mung bean seedlings; 0.01 ppm,14.51 root/seedling
same,Total adventitious root length,mung bean seedlings; 0.01 ppm,20.06 cm/seedling
same,Adventitious root number,mung bean seedlings; 0.1 ppm,13.67 root/seedling
same,Total adventitious root length,mung bean seedlings; 0.1 ppm,19.40 cm/seedling
same,Average single-fruit weight,tomato,51.3 g
same,Ear number/plant,tomato,6.9
same,Green fruit number/plant,tomato,13.8 fruit
same,Red fruit number/plant,tomato,46.4 fruit
same,Yield per mu,tomato,6188.8 kg/mu
same,increase of red-to-green fruit ratio compared with the control,tomato,5.91%
same,red-to-green fruit ratio,tomato,3.36
same,Yield increase rate,tomato,27.15%
same,Yield increase rate,tomato; listed as sodium iron chlorophyllin,more than 27%
same,Average diseased plant rate,[3]; [4],2.2%
same,Control effect,[3]; [4],35.29%
same,Average diseased plant rate,[3]; [5],5.6%
same,Control effect,[3]; [5],35.63%
same,Average diseased plant rate,[3]; [6],2.3%
same,Control effect,[3]; [6],32.35%
same,Average diseased plant rate,[3]; [7],4.8%
same,Control effect,[3]; [7],44.83%
same,Average diseased plant rate,[3]; [8],1.8%
same,Control effect,[3]; [8],47.06%
same,Average diseased plant rate,[3]; [9],4.1%
same,Control effect,[3]; [9],49.42%
same,Actual seed cotton yield per mu,cotton; [10],380.8 kg/mu
same,Average cotton boll weight,cotton; [10],5.2 g
same,Effective cotton boll number in 0.01 mu,cotton; [10],812.0
same,Yield increase rate,cotton; [10],7.94%
same,Actual seed cotton yield per mu,cotton; [11],374.9 kg/mu
same,Average cotton boll weight,cotton; [11],5.3 g
same,Effective cotton boll number in 0.01 mu,cotton; [11],786.1
same,Actual seed cotton yield per mu,cotton; [12],386.9 kg/mu
same,Average cotton boll weight,cotton; [12],5.3 g
same,Effective cotton boll number in 0.01 mu,cotton; [12],812.0
same,Yield increase rate,cotton; [12],9.66%
same,yield of the treatment field,rice,720 kg/mu
